Assay results: patent publication US20160115540A1, “PRODRUGS AND DRUGS” (Biogen MA Inc., priority 2013, published 2016)
“Also recorded” adds a separate entry of the source. Structures can show the parent of a compound that is named as a salt.

Test system: NK cells
Assay: Flow cytometry of NK cell surface markers (MFI) in naïve mice
Type: in vivo, C57Bl/6 mice
Conditions: 12 hr after 100 mpk PO
Description: Protein expression is quantified by mean fluorescent intensity (MFI).
12-hours post-dose, mice were sacrificed and blood, spleen, and inguinal lymph node were collected for analysis by flow cytometry.
Transcriptional differences in NK cell markers were confirmed at the protein level by flow cytometry. […] Protein expression was quantified by mean fluorescent intensity (MFI). […] 12-hours post-dose, mice were sacrificed and blood, spleen, and inguinal lymph node (iLN) were collected for analysis by flow cytometry.

COC(=O)/C=C/C(=O)OC [DMF, dimethyl fumarate] was tested, and the “Klrb1b (NK1.1) protein expression change, MFI difference compared to MMF 12 hr or vehicle control” value (NK cells) was “differentially expressed; also recorded: Significant”, the “Klrc1 (Nkg2a) protein expression change, MFI difference compared to MMF 12 hr or vehicle control” value (NK cells) was “differentially expressed; also recorded: Significant” and the “Klrd1 (CD94) protein expression change, MFI difference compared to MMF 12 hr or vehicle control” value (NK cells) was “differentially expressed”. For the same compound, the “Klrk1 (NKG2d) protein expression change, MFI difference compared to MMF 12 hr or vehicle control” value (NK cells) was “differentially expressed; also recorded: Significant”, the “Ncr1 (NKp46) protein expression change, MFI difference compared to MMF 12 hr or vehicle control” value (NK cells) was “Not significant” and the “Effects on NK cells in the spleen” value (naïve mice) was “exerts effects on NK cells in the spleen”.
